Test system: MV-4-11 cells
Experiment: Gene expression microarray analysis (Affymetrix PrimeView) and GSEA
Type: cell-based, human
Parameters: RFU PODN (11730768_x_at) / Fold change /veh PODN (11730768_x_at) / RFU LINC00158 (11744669_a_at) / Fold change /veh LINC00158 (11744669_a_at) / RFU DUSP10 (11751237_a_at) / Fold change /veh DUSP10 (11751237_a_at) / RFU ID3 (11757404_x_at) / Fold change /veh ID3 (11757404_x_at) / RFU PLEKHG5 (11737974_s_at) / Fold change /veh PLEKHG5 (11737974_s_at) / RFU LRRC4B (11730491_at) / Fold change /veh LRRC4B (11730491_at) / RFU GIMAP4 (11747438_a_at) / Fold change /veh GIMAP4 (11747438_a_at) / RFU KRT8 (11758183_x_at) / Fold change /veh KRT8 (11758183_x_at) / RFU CNN1 (11734310_a_at) / Fold change /veh CNN1 (11734310_a_at) / RFU VPS37D (11726825_at) / Fold change /veh VPS37D (11726825_at) / RFU C10orf10 (11716522_x_at) / Fold change /veh C10orf10 (11716522_x_at) / RFU KIR2DL2 /// KIR2DL4 /// KIR2DL5A /// KIR2DL5B /// KIR2DS1 /// KIR2DS2 /// KIR2DS3 /// KIR2DS4 /// KIR3DL3 /// KIR3DL3 /// KIR3DS1 (11738374_at) / Fold change /veh KIR2DL2 /// KIR2DL4 /// KIR2DL5A /// KIR2DL5B /// KIR2DS1 /// KIR2DS2 /// KIR2DS3 /// KIR2DS4 /// KIR3DL3 /// KIR3DL3 /// KIR3DS1 (11738374_at) / RFU C1QL1 (11718748_at) / Fold change /veh C1QL1 (11718748_at) / RFU TMPRSS4 (11747572_a_at) / Fold change /veh TMPRSS4 (11747572_a_at) / RFU HAMP (11756126_x_at) / Fold change /veh HAMP (11756126_x_at) / RFU RNFT2 (11725882_a_at) / Fold change /veh RNFT2 (11725882_a_at) / RFU NR4A2 (11747474_a_at) / Fold change /veh NR4A2 (11747474_a_at) / RFU ABCC12 (11746883_a_at) / Fold change /veh ABCC12 (11746883_a_at) / RFU TMEM136 (11760407_x_at) / Fold change /veh TMEM136 (11760407_x_at) / RFU CLDN22 /// WWC2 (11732394_at) / Fold change /veh CLDN22 /// WWC2 (11732394_at) / RFU HLA-DPB1 (11760878_x_at) / Fold change /veh HLA-DPB1 (11760878_x_at) / RFU SPINT1 (11716480_a_at) / Fold change /veh SPINT1 (11716480_a_at) / RFU GAP43 (11754022_s_at) / Fold change /veh GAP43 (11754022_s_at) / RFU A4GNT (11735810_at) / Fold change /veh A4GNT (11735810_at) / RFU PRB3 (11715151_x_at) / Fold change /veh PRB3 (11715151_x_at) / RFU TUBB4B (11761932_at) / Fold change /veh TUBB4B (11761932_at) / RFU CAPN14 (11732068_a_at) / Fold change /veh CAPN14 (11732068_a_at) / RFU TMCC2 (11721928_a_at) / Fold change /veh TMCC2 (11721928_a_at) / RFU IRGQ (11745062_a_at) / Fold change /veh IRGQ (11745062_a_at) / RFU FAM174B (11720279_a_at) / Fold change /veh FAM174B (11720279_a_at) / RFU TMPRSS4 (11748680_a_at) / Fold change /veh TMPRSS4 (11748680_a_at) / RFU FAM212B (11763350_a_at) / Fold change /veh FAM212B (11763350_a_at) / RFU PLEKHG5 (11743358_a_at) / Fold change /veh PLEKHG5 (11743358_a_at) / RFU ZSCAN30 (11745921_a_at) / Fold change /veh ZSCAN30 (11745921_a_at) / RFU CMKLR1 (11741424_a_at) / Fold change /veh CMKLR1 (11741424_a_at) / RFU LOC101060620 /// MAPK8IP1 (11723275_at) / Fold change /veh LOC101060620 /// MAPK8IP1 (11723275_at) / RFU SPTSSB (11747773_x_at) / Fold change /veh SPTSSB (11747773_x_at) / RFU PRSS12 (11739890_at) / Fold change /veh PRSS12 (11739890_at) / RFU BIN1 (11741810_x_at) / Fold change /veh BIN1 (11741810_x_at) / RFU WNT11 (11732464_a_at) / Fold change /veh WNT11 (11732464_a_at) / RFU C10orf10 (11716521_a_at) / Fold change /veh C10orf10 (11716521_a_at) / RFU C5orf56 (11738089_at) / Fold change /veh C5orf56 (11738089_at) / RFU CYB561 (11721691_x_at) / Fold change /veh CYB561 (11721691_x_at) / RFU ANKRD19P (11752326_a_at) / Fold change /veh ANKRD19P (11752326_a_at) / RFU OR2T12 /// OR2T33 /// OR2T8 (11738714_s_at) / Fold change /veh OR2T12 /// OR2T33 /// OR2T8 (11738714_s_at) / RFU VCAN (11748164_a_at) / Fold change /veh VCAN (11748164_a_at) / RFU JSRP1 (11732532_at) / Fold change /veh JSRP1 (11732532_at) / RFU KRTAP10-11 (11738290_x_at) / Fold change /veh KRTAP10-11 (11738290_x_at) / RFU MYO3A (11730013_a_at) / Fold change /veh MYO3A (11730013_a_at) / RFU EBF3 (11725865_a_at) / Fold change /veh EBF3 (11725865_a_at) / RFU CAMK2N1 (11719241_x_at) / Fold change /veh CAMK2N1 (11719241_x_at) / RFU C5orf56 (11738088_a_at) / Fold change /veh C5orf56 (11738088_a_at) / RFU OLFML3 (11715873_a_at) / Fold change /veh OLFML3 (11715873_a_at) / RFU LOC100653217 /// NTM (11731650_a_at) / Fold change /veh LOC100653217 /// NTM (11731650_a_at) / RFU MAPK11 (11762145_a_at) / Fold change /veh MAPK11 (11762145_a_at) / RFU FIZ1 (11724087_x_at) / Fold change /veh FIZ1 (11724087_x_at) / RFU OASL (11726364_x_at) / Fold change /veh OASL (11726364_x_at) / RFU SOX15 (11748057_x_at) / Fold change /veh SOX15 (11748057_x_at) / RFU CD79A (11719716_a_at) / Fold change /veh CD79A (11719716_a_at) / RFU HIST1H1D (11736915_at) / Fold change /veh HIST1H1D (11736915_at) / RFU CASKIN2 (11723855_a_at) / Fold change /veh CASKIN2 (11723855_a_at) / RFU LOC730098 (11760151_x_at) / Fold change /veh LOC730098 (11760151_x_at) / RFU OR4N2 (11742367_at) / Fold change /veh OR4N2 (11742367_at) / RFU PRRT2 (11749266_a_at) / Fold change /veh PRRT2 (11749266_a_at) / RFU SNX32 (11753110_a_at) / Fold change /veh SNX32 (11753110_a_at) / RFU CDHR5 (11726645_a_at) / Fold change /veh CDHR5 (11726645_a_at) / RFU RCAN1 (11760418_a_at) / Fold change /veh RCAN1 (11760418_a_at) / RFU FAM167A (11723789_a_at) / Fold change /veh FAM167A (11723789_a_at) / RFU FAM26E (11764081_at) / Fold change /veh FAM26E (11764081_at) / RFU ISYNA1 (11749810_s_at) / Fold change /veh ISYNA1 (11749810_s_at) / RFU ACY1 (11761880_at) / Fold change /veh ACY1 (11761880_at) / RFU 11764098_at / Fold change /veh 11764098_at / RFU SAMD14 (11745864_x_at) / Fold change /veh SAMD14 (11745864_x_at) / RFU NPB (11741838_a_at) / Fold change /veh NPB (11741838_a_at) / RFU TMPRSS6 (11731388_a_at) / Fold change /veh TMPRSS6 (11731388_a_at) / RFU KRTAP10-2 (11738614_at) / Fold change /veh KRTAP10-2 (11738614_at) / RFU ARHGAP8 /// PRR5-ARHGAP8 (11727945_x_at) / Fold change /veh ARHGAP8 /// PRR5-ARHGAP8 (11727945_x_at) / RFU KRTAP5-7 /// NADSYN1 (11734609_at) / Fold change /veh KRTAP5-7 /// NADSYN1 (11734609_at) / RFU RASL12 (11751679_a_at) / Fold change /veh RASL12 (11751679_a_at) / RFU CDKN2B (11736163_a_at) / Fold change /veh CDKN2B (11736163_a_at) / RFU PRF1 (11729649_at) / Fold change /veh PRF1 (11729649_at) / RFU, ZNF638 /// ZNF638-IT1 / Fold change vs veh, ZNF638 /// ZNF638-IT1 / RFU, PANK3 / Fold change vs veh, PANK3 / RFU, SH3YL1 / Fold change vs veh, SH3YL1 / RFU, ZEB2 / Fold change vs veh, ZEB2 / RFU, NRIP1 / Fold change vs veh, NRIP1 / RFU, PTTG1IP / Fold change vs veh, PTTG1IP / RFU, CAPN2 / Fold change vs veh, CAPN2 / RFU, MED14 / Fold change vs veh, MED14 / RFU, SNORA58 / Fold change vs veh, SNORA58 / RFU, C1orf63 / Fold change vs veh, C1orf63 / RFU, LRRFIP1 / Fold change vs veh, LRRFIP1 / RFU, NDUFAF7 / Fold change vs veh, NDUFAF7 / RFU, SLC12A2 / Fold change vs veh, SLC12A2 / RFU, IBTK / Fold change vs veh, IBTK / RFU, ESF1 / Fold change vs veh, ESF1 / Fold change vs veh, TMEM50B / RFU, TAOK1 / Fold change vs veh, TAOK1 / RFU, ACBD3 / Fold change vs veh, ACBD3 / RFU, TMA16 / Fold change vs veh, TMA16 / RFU, RWDD3 / Fold change vs veh, RWDD3 / RFU, BCAT1 / Fold change vs veh, BCAT1 / RFU, EDEM3 / Fold change vs veh, EDEM3 / RFU, TMEM33 / Fold change vs veh, TMEM33 / RFU, WDR75 / Fold change vs veh, WDR75 / RFU, AHCTF1 / Fold change vs veh, AHCTF1 / RFU, TFRC / Fold change vs veh, TFRC / RFU, ZDHHC17 / Fold change vs veh, ZDHHC17 / RFU, NOM1 / Fold change vs veh, NOM1 / RFU, ARL8B / Fold change vs veh, ARL8B / RFU, ZBTB11 / Fold change vs veh, ZBTB11 / RFU, TAMM41 / Fold change vs veh, TAMM41 / RFU, KIAA1704 /// LOC100996395 / Fold change vs veh, KIAA1704 /// LOC100996395 / RFU, ING1 / Fold change vs veh, ING1 / RFU, TRMT61B / Fold change vs veh, TRMT61B / RFU, FUBP3 / Fold change vs veh, FUBP3 / RFU, TP53 / Fold change vs veh, TP53 / RFU, TNKS2 / Fold change vs veh, TNKS2 / RFU, ZFP14 / Fold change vs veh, ZFP14 / RFU, ACTR2 / Fold change vs veh, ACTR2 / RFU, PPP3R1 / Fold change vs veh, PPP3R1 / RFU, PIK3R1 / Fold change vs veh, PIK3R1 / RFU, HNRNPA1 / Fold change vs veh, HNRNPA1 / RFU, RNF170 / Fold change vs veh, RNF170 / RFU, ZNF28 / Fold change vs veh, ZNF28 / RFU, RNGTT / Fold change vs veh, RNGTT / RFU, OGT / Fold change vs veh, OGT / RFU, BRD1 / Fold change vs veh, BRD1 / RFU, MARS / Fold change vs veh, MARS / RFU, ZNF655 / Fold change vs veh, ZNF655 / RFU, FAHD1 / Fold change vs veh, FAHD1 / RFU, BDP1 / Fold change vs veh, BDP1 / RFU, LRRCC1 / Fold change vs veh, LRRCC1 / RFU, ARID1A / Fold change vs veh, ARID1A / RFU, ZNF146 / Fold change vs veh, ZNF146 / RFU, ZNF330 / Fold change vs veh, ZNF330 / RFU, GPN3 / Fold change vs veh, GPN3 / RFU, C9orf123 / Fold change vs veh, C9orf123 / RFU, N4BP2L2 / Fold change vs veh, N4BP2L2 / RFU, ARFIP1 / Fold change vs veh, ARFIP1 / RFU, FAM179B / Fold change vs veh, FAM179B / RFU, BCL10 / Fold change vs veh, BCL10 / RFU, UHRF1BP1L / Fold change vs veh, UHRF1BP1L / RFU, BET1 / Fold change vs veh, BET1 / RFU, CNOT2 / Fold change vs veh, CNOT2 / RFU, ZNF268 / Fold change vs veh, ZNF268 / Fold change vs veh, ZNF507 / RFU, DGCR2 / Fold change vs veh, DGCR2 / RFU, WDSUB1 / Fold change vs veh, WDSUB1 / Fold change vs veh, HSP90B1 /// MIR3652 / RFU, ADSS / Fold change vs veh, ADSS / RFU, GK / Fold change vs veh, GK / RFU, ZNF148 / Fold change vs veh, ZNF148 / RFU, TAF9 / Fold change vs veh, TAF9 / RFU, SLC1A5 / Fold change vs veh, SLC1A5 / RFU, SLMO2 / Fold change vs veh, SLMO2 / RFU, ABCC4 / Fold change vs veh, ABCC4 / RFU, LOC101060439 /// RAP1B / Fold change vs veh, LOC101060439 /// RAP1B / RFU, RFX7 / Fold change vs veh, RFX7 / RFU, GTPBP10 / Fold change vs veh, GTPBP10 / RFU, CNEP1R1 / Fold change vs veh, CNEP1R1 / RFU, BIVM-ERCC5 /// ERCC5 / Fold change vs veh, BIVM-ERCC5 /// ERCC5 / RFU, ILF3 / Fold change vs veh, ILF3 / RFU 11762660_at / Fold change /veh 11762660_at / RFU VCAN (11757783_s_at) / Fold change /veh VCAN (11757783_s_at) / RFU DDX43 (11728927_at) / Fold change /veh DDX43 (11728927_at) / RFU KRT8 (11758188_x_at) / Fold change /veh KRT8 (11758188_x_at) / RFU NKD1 (11759106_at) / Fold change /veh NKD1 (11759106_at) / RFU SRD5A1 (11742802_a_at) / Fold change /veh SRD5A1 (11742802_a_at) / RFU TPSAB1 /// TPSB2 (11721975_s_at) / Fold change /veh TPSAB1 /// TPSB2 (11721975_s_at) / RFU GSTM3 (11746129_a_at) / Fold change /veh GSTM3 (11746129_a_at) / RFU IL23R (11737362_x_at) / Fold change /veh IL23R (11737362_x_at) / RFU TMEM51 (11727254_a_at) / Fold change /veh TMEM51 (11727254_a_at) / RFU PIWIL2 (11732686_x_at) / Fold change /veh PIWIL2 (11732686_x_at) / RFU ORM1 (11744905_x_at) / Fold change /veh ORM1 (11744905_x_at) / RFU CCDC152 (11743942_at) / Fold change /veh CCDC152 (11743942_at) / RFU ECM1 (11717891_a_at) / Fold change /veh ECM1 (11717891_a_at) / RFU IL23R (11748794_a_at) / Fold change /veh IL23R (11748794_a_at) / RFU TNFAIP8L3 (11732012_x_at) / Fold change /veh TNFAIP8L3 (11732012_x_at) / RFU MBOAT4 (11741988_at) / Fold change /veh MBOAT4 (11741988_at) / RFU 11764193_at / Fold change /veh 11764193_at / RFU TMEM53 (11763286_at) / Fold change /veh TMEM53 (11763286_at) / RFU MAGEB2 (11727129_at) / Fold change /veh MAGEB2 (11727129_at) / RFU TMEM200A (11744735_a_at) / Fold change /veh TMEM200A (11744735_a_at) / RFU CCDC152 (11751479_a_at) / Fold change /veh CCDC152 (11751479_a_at) / RFU FAM211A (11726209_a_at) / Fold change /veh FAM211A (11726209_a_at) / RFU RGS16 (11746705_a_at) / Fold change /veh RGS16 (11746705_a_at) / RFU VCAN (11755009_s_at) / Fold change /veh VCAN (11755009_s_at) / RFU RHOB (11743442_s_at) / Fold change /veh RHOB (11743442_s_at) / RFU RGS16 (11720943_a_at) / Fold change /veh RGS16 (11720943_a_at) / RFU RGS16 (11720944_at) / Fold change /veh RGS16 (11720944_at) / RFU, VPS4B / Fold change vs veh, VPS4B / RFU, CREB1 / Fold change vs veh, CREB1 / RFU, DNAJC13 / Fold change vs veh, DNAJC13 / RFU, GNAQ / Fold change vs veh, GNAQ / RFU, CDK5R1 / Fold change vs veh, CDK5R1 / RFU, ZRANB3 / Fold change vs veh, ZRANB3 / RFU, CUL4A / Fold change vs veh, CUL4A / RFU, CCNY / Fold change vs veh, CCNY / RFU, UFL1 / Fold change vs veh, UFL1 / RFU, COG3 / Fold change vs veh, COG3 / RFU, DIAPH2 / Fold change vs veh, DIAPH2 / RFU, SKA2 / Fold change vs veh, SKA2 / RFU, AFF3 / Fold change vs veh, AFF3 / RFU, LMF1 / Fold change vs veh, LMF1 / RFU, IPO11 / Fold change vs veh, IPO11 / RFU, DFFB / Fold change vs veh, DFFB / RFU, FOXP1 / Fold change vs veh, FOXP1 / RFU, CARD8 / Fold change vs veh, CARD8 / RFU, STRN3 / Fold change vs veh, STRN3 / RFU, ADK / Fold change vs veh, ADK / RFU, RASSF2 / Fold change vs veh, RASSF2 / RFU, WIPF1 / Fold change vs veh, WIPF1 / RFU, LARP1B / Fold change vs veh, LARP1B / RFU, RASA1 / Fold change vs veh, RASA1 / RFU, RB1 / Fold change vs veh, RB1 / RFU, PPFIA1 / Fold change vs veh, PPFIA1 / RFU, MAT2A / Fold change vs veh, MAT2A / RFU, CCT5 / Fold change vs veh, CCT5 / RFU, WDR92 / Fold change vs veh, WDR92 / RFU, CUX1 / Fold change vs veh, CUX1 / RFU, TTC7A / Fold change vs veh, TTC7A / RFU, TMEM135 / Fold change vs veh, TMEM135 / RFU, DEPTOR / Fold change vs veh, DEPTOR / RFU, CPM / Fold change vs veh, CPM / RFU, DNAJB6 / Fold change vs veh, DNAJB6 / RFU, CACNA2D3 / Fold change vs veh, CACNA2D3 / RFU, DTX4 / Fold change vs veh, DTX4 / RFU, TFCP2 / Fold change vs veh, TFCP2 / RFU, GMCL1 /// GMCL1P1 / Fold change vs veh, GMCL1 /// GMCL1P1 / RFU, AEBP2 / Fold change vs veh, AEBP2 / RFU, SNHG1 /// SNORD22 /// SNORD25 /// SNORD26 /// SNORD27 /// SNORD28 /// SNORD29 /// SNORD31 / Fold change vs veh, SNHG1 /// SNORD22 /// SNORD25 /// SNORD26 /// SNORD27 /// SNORD28 /// SNORD29 /// SNORD31 / Fold change (Aza/veh), C12orf56 (ProbeSet 11735607_a_at) / Fold change (ACY-1035/veh), C12orf56 (ProbeSet 11735607_a_at) / Fold change (Aza/veh), FGFR1OP (ProbeSet 11751329_s_at) / Fold change (ACY-1035/veh), FGFR1OP (ProbeSet 11751329_s_at) / Fold change (Aza/veh), VPS36 (ProbeSet 11739960_a_at) / Fold change (ACY-1035/veh), VPS36 (ProbeSet 11739960_a_at) / RFU SYPL1 (11715823_x_at) / Fold change /veh SYPL1 (11715823_x_at) / RFU IGFBP7 (11715501_s_at) / Fold change /veh IGFBP7 (11715501_s_at) / RFU REEP3 (11722064_at) / Fold change /veh REEP3 (11722064_at) / RFU IGLL1 (11728026_x_at) / Fold change /veh IGLL1 (11728026_x_at): dose or concentration left out as unconfirmed
Conditions: ProbeSet 11740011_at; LIST B

## Nc1ncn([C@@H]2O[C@H](CO)[C@@H](O)[C@H]2O)c(=O)n1 [azacitidine]
  RFU, ZFP14: 67.74 RFU

— publication PMC5218480 (PLoS ONE, 2017)
